{
  "source": "ChEMBL document CHEMBL1765078",
  "about": "“17-Hydroxycyclooctatin, a fused 5-8-5 ring diterpene, from Streptomyces sp. MTE4a” (J Nat Prod, 2011)",
  "test_system": "Staphylococcus aureus",
  "assay": "Antibacterial activity against Staphylococcus aureus at 1 mg/ml",
  "type": "functional, organism-based",
  "note": "The source made the active and inactive calls. No cut-off for these calls is given here.",
  "data": [
    {"smiles": "C[C@H](CO)[C@H]1CC[C@]2(C)C[C@@H]3[C@H](CO)C[C@@H](O)[C@H]3[C@@](C)(O)C/C=C/12", "values": [
      {"measurement": "Activity", "result": "inactive"}
    ]}
  ]
}
